We go through 19 compounds from patent US9084420B2, “Amide derivative, pest control agent containing the amide derivative, and pest controlling method” (Mitsui Chemicals Agro, Inc., priority 2008, dated 2015).

Counter-ions that a name gives are not always drawn.

One experiment concerns Spodoptera litura. The experiment can be described thus: Pesticidal test against Spodoptera litura (cabbage leaf immersion). Particulars: 144 h, 2-stage larvae on treated cabbage leaf, 25° C., after 6 days, read-out: pesticidal rate. It is filed as in vivo. How it is done: Pesticidal Test Against Spodoptera litura A piece of a cabbage leaf was immersed for 30 seconds in a chemical solution in which a test compound had been diluted at a predetermined concentration, and air-dried, and then put into a 7 cm polyethylene cup having a filter paper laid on the bottom thereof, and 2-stage larvae of Spodoptera litura were released. They were left to stand in a thermostatic chamber at 25° C., and the numbers of the living pests and the dead pests were examined after 6 days. The test was carried out with five larvae per group in two replicates.

The next experiment relates to Plutella xylostella. The experiment is described as follows: Pesticidal test against Plutella xylostella (cabbage leaf immersion). It is filed as in vivo. Particulars: 144 h, 3-stage larvae on treated cabbage leaf, 25° C., after 6 days, read-out: pesticidal rate. Here is the method: Pesticidal Test Against Plutella xylostella A piece of a cabbage leaf was immersed for 30 seconds in a chemical solution in which a test compound had been diluted at a predetermined concentration, and air-dried, and then put into a 7 cm polyethylene cup having a filter paper laid on the bottom thereof, and 3-stage larvae of Plutella xylostella were released. They were left to stand in a thermostatic chamber at 25° C., and the numbers of the living pests and the dead pests were examined after 6 days. The test was carried out with five larvae per group in two replicates.

For the compound `CNC(=O)NCCCN(C(=O)c1ccccc1)c1cccc(C(=O)Nc2c(C)cc(C(F)(C(F)(F)F)C(F)(F)F)cc2C)c1` [6-49, N-(3-(2,6-dimethyl-4-(perfluoropropan-2-yl)phenylcarbamoyl)phenyl)-N-(3-(3-methylureido)propyl)benzamide], the pest or weed control at 100 ppm in the experiment on Spodoptera litura and in the experiment on Plutella xylostella was ≥ 70% each time. Regarding `Cc1cc(C(F)(C(F)(F)F)C(F)(F)F)cc(C)c1N(CC(=O)O)C(=O)c1cccc(N(C)C(=O)c2ccccc2)c1F` [7-222, 2-(N-(2,6-dimethyl-4-(perfluoropropan-2-yl)phenyl)-2-fluoro-3-(N-methylbenzamide)benzamide)acetic acid], the pest or weed control at 100 ppm in the experiment on Spodoptera litura and in the experiment with Plutella xylostella was ≥ 70% throughout. With `Cc1cc(C(F)(C(F)(F)F)C(F)(F)F)cc(C)c1N(C)C(=O)c1cccc(N(CC[S+](C)[O-])C(=O)c2ccccc2)c1` (stereo not shown) [5-72, N-(2,6-dimethyl-4-(perfluoropropan-2-yl)phenyl)-N-methyl-3-(N-(2-(methylsulfinyl)ethyl)benzamide)benzamide], the pest or weed control at 100 ppm with Spodoptera litura and with Plutella xylostella was ≥ 70% in each case. Take `Cc1cc(C(F)(C(F)(F)F)C(F)(F)F)cc(C)c1N(C)C(=O)c1cccc(N(C[S+](C)[O-])C(=O)c2ccccc2)c1` (stereo not shown) [6-7, N-(2,6-dimethyl-4-(perfluoropropan-2-yl)phenyl)-N-methyl-3-(N-(methylsulfinylmethyl)benzamide)benzamide]: the pest or weed control at 100 ppm with Spodoptera litura and with Plutella xylostella was ≥ 70% throughout.

Consider `N#Cc1ccc(C(=O)N(CCC(=O)NCC(N)=O)c2cccc(C(=O)Nc3c(Br)cc(C(F)(C(F)(F)F)C(F)(F)F)cc3Br)c2F)cc1` [5-31, 3-(N-(3-(2-amino-2-oxoethylamino)-3-oxopropyl)-4-cyanobenzamide)-N-(2,6-dibromo-4-(perfluoropropan-2-yl)phenyl)-2-fluorobenzamide], for which the pest or weed control at 100 ppm with Spodoptera litura and with Plutella xylostella was ≥ 70% in each case. For the compound `CSCCN(C(=O)c1ccccc1)c1cccc(C(=O)N(C)c2c(C)cc(C(F)(C(F)(F)F)C(F)(F)F)cc2C)c1` [5-71, N-(2,6-dimethyl-4-(perfluoropropan-2-yl)phenyl)-N-methyl-3-(N-(2-(methylthio)ethyl)benzamide)benzamide], the pest or weed control at 100 ppm in the experiment with Spodoptera litura and in the experiment on Plutella xylostella was ≥ 70% throughout.

With `COC(=O)CN(C(=O)c1cccc(N(C)C(=O)c2ccccc2)c1F)c1c(C)cc(C(F)(C(F)(F)F)C(F)(F)F)cc1C` [7-221, methyl 2-(N-(2,6-dimethyl-4-(perfluoropropan-2-yl)phenyl)-2-fluoro-3-(N-methylbenzamide)benzamide)acetate], the pest or weed control at 100 ppm in the experiment on Spodoptera litura and in the experiment on Plutella xylostella was ≥ 70% throughout. As for `Cc1cc(C(F)(C(F)(F)F)C(F)(F)F)cc(C)c1NC(=O)c1cccc(N(CCC(=O)NN)C(=O)c2ccc(C#N)cc2)c1F` [5-83, 3-(4-cyano-N-(3-hydrazinyl-3-oxopropyl)benzamide)-N-(2,6-dimethyl-4-(perfluoropropan-2-yl)phenyl)-2-fluorobenzamide], the pest or weed control at 100 ppm in the experiment on Spodoptera litura and in the experiment with Plutella xylostella was ≥ 70% each time. As to `COC(=O)CCN(C(=O)c1ccccc1)c1cccc(C(=O)Nc2c(C)cc(C(F)(C(F)(F)F)C(F)(F)F)cc2C)c1` [5-1, methyl 3-(N-(3-(2,6-dimethyl-4-(perfluoropropan-2-yl)phenylcarbamoyl)phenyl)benzamide)propanoate], the pest or weed control at 100 ppm with Spodoptera litura and in the experiment on Plutella xylostella was ≥ 70% throughout. Turning to `Cc1cc(C(F)(C(F)(F)F)C(F)(F)F)cc(C)c1NC(=O)c1cccc(N(CCC(=O)OCC(N)C(=O)O)C(=O)c2ccccc2)c1` (stereo not shown) [5-25, 2-amino-3-(3-(N-(3-(2,6-dimethyl-4-(perfluoropropan-2-yl)phenylcarbamoyl)phenyl)benzamide)propanoyloxy)propanoic acid hydrochloric acid salt], the pest or weed control at 100 ppm in the experiment with Spodoptera litura and with Plutella xylostella was ≥ 70% in each case. As to `O=C(O)CCN(C(=O)c1ccccc1)c1cccc(C(=O)Nc2c(I)cc(C(F)(C(F)(F)F)C(F)(F)F)cc2C(F)(F)F)c1` [5-88, 3-(N-(3-(2-iodo-4-(perfluoropropan-2-yl)-6-(trifluoromethyl)phenylcarbamoyl)phenyl)benzamide)propanoic acid], the pest or weed control at 100 ppm with Spodoptera litura and in the experiment on Plutella xylostella was ≥ 70% in each case. In the case of `Cc1cc(C(F)(C(F)(F)F)C(F)(F)F)cc(C)c1N(C)C(=O)c1cccc(N(CCS(C)(=O)=O)C(=O)c2ccccc2)c1` [5-73, N-(2,6-dimethyl-4-(perfluoropropan-2-yl)phenyl)-N-methyl-3-(N-(2-(methylsulfonyl)ethyl)benzamide)benzamide], the pest or weed control at 100 ppm with Spodoptera litura and with Plutella xylostella was ≥ 70% each time. Regarding `COC(=O)CCCN(C(=O)c1ccccc1)c1cccc(C(=O)N(C)c2c(C)cc(C(F)(C(F)(F)F)C(F)(F)F)cc2C)c1` [6-13, methyl 4-(N-(3-((2,6-dimethyl-4-(perfluoropropan-2-yl)phenyl)(methyl)carbamoyl)phenyl)benzamide)butanoate], the pest or weed control at 100 ppm in the experiment with Plutella xylostella is ≥ 70%. Take `Cc1cc(C(F)(C(F)(F)F)C(F)(F)F)cc(C)c1N(CC(=O)O)C(=O)c1cccc(N(CC(=O)O)C(=O)c2ccccc2)c1F` [8-13, 2-(N-(3((carboxymethyl)(2,6-dimethyl-4-(perfluoropropan-2-yl)phenyl)carbamoyl)-2-fluorophenyl)benzamide)acetic acid]: the pest or weed control at 100 ppm with Plutella xylostella is ≥ 70%. Still for that read-out and setting: next, `CS(=O)(=O)CCN(C(=O)c1cccc(NC(=O)c2ccccc2)c1F)c1c(Br)cc(C(F)(C(F)(F)F)C(F)(F)F)cc1Br` [7-169, 3-benzamide-N-(2,6-dibromo-4-(perfluoropropan-2-yl)phenyl)-2-fluoro-N-(2-(methylsulfonyl)ethyl)benzamide]: ≥ 70%. In the case of `Cc1cc(C(F)(C(F)(F)F)C(F)(F)F)cc(C)c1NC(=O)c1cccc(N(CCC(=O)O)C(=O)c2ccccc2)c1` [5-4, 3-(N-(3-(2,6-dimethyl-4-(perfluoropropan-2-yl)phenylcarbamoyl)phenyl)benzamide)propanoic acid], the pest or weed control at 100 ppm in the experiment on Plutella xylostella is ≥ 70%. For `Cc1cc(C(F)(C(F)(F)F)C(F)(F)F)cc(C)c1NC(=O)c1cccc(N(CCCN/C(N)=N/[N+](=O)[O-])C(=O)c2ccccc2)c1` [6-61, N-(3-(2,6-dimethyl-4-(perfluoropropan-2-yl)phenylcarbamoyl)phenyl)-N-(3-(2-nitroguanidino)propyl)benzamide], the pest or weed control at 100 ppm with Spodoptera litura was ≥ 70%.

For `Cc1cc(C(F)(C(F)(F)F)C(F)(F)F)cc(C)c1N(CCO)C(=O)c1cccc(N(C)C(=O)c2ccccc2)c1F` [7-23, N-(2,6-dimethyl-4-(perfluoropropan-2-yl)phenyl)-2-fluoro-N-(2-hydroxyethyl)-3-(N-methylbenzamide)benzamide], the pest or weed control at 100 ppm in the experiment with Plutella xylostella is ≥ 70%. On to `COC(=O)CCN(C(=O)c1cccc(NC(=O)c2ccccc2)c1)c1c(C)cc(C(F)(C(F)(F)F)C(F)(F)F)cc1C` [7-6, methyl 3-(3-benzamide-N-(2,6-dimethyl-4-(perfluoropropan-2-yl)phenyl)benzamide)propanoate], for which the pest or weed control at 100 ppm with Plutella xylostella is ≥ 70%.
